System: dyslipidemic patients with or without statin
Assay: Example 4 pooled analysis of phase 2 and 3 studies: safety parameters
Type: in vivo, human
Settings: With Statin
Procedure: The present study analyzed data combined from 6 randomized double-blind placebo-controlled studies that were conducted in Japan and continued for 12 weeks unless otherwise noted: a phase 2 study in 224 patients with a history of documented dyslipidemia and plasma TG of 200 mg/dL (2.26 mmol/L) or higher, randomized to placebo, pemafibrate 0.05, 0.1, 0.2, 0.4 mg/day, or fenofibrate 100 mg/day; a phase 3 study in 526 patients with dyslipidemia, high TG levels, and low HDL-C levels, randomized to placebo, pemafibrate 0.1, 0.2, or 0.4 mg/day, or fenofibrate 100 or 200 mg/day; a study in 188 patients with dyslipidemia, randomized to pitavastatin in combination with pemafibrate 0.1, 0.2, or 0.4 mg/day; a 24-week study in 423 patients with dyslipidemia, randomized to pemafibrate 0.2 mg/day (fixed dose) or 0.2 [0.4] mg/day (conditional up-titration) with any statin; a 24-week phase 3 study in 166 patients with type 2 diabetes and hypertriglyceridemia, randomized to placebo or pemafibrate 0.2 or 0.4 mg/day; and a study in 27 patients with hypertriglyceridemia and insulin resistance, randomized to pemafibrate 0.4 mg/day or placebo. All studies were approved by the Institutional Review Board for each study institution and were conducted in accordance with the Declaration of Helsinki and under the guidelines of Good Clinical Practice.
In this study, we evaluated the efficacy and safety of pemafibrate at doses of 0.1 mg/day, 0.2 mg/day, and 0.4 mg/day, with and without statin. The primary efficacy endpoint was percent change in TG from baseline to 12 weeks. The secondary efficacy endpoints were also assessed from baseline to 12 weeks: percent change in HDL-C, LDL-C, non-HDL-C, TC, RemL-C, Apo AI, Apo AII, Apo B, Apo B48, Apo CII, Apo CIII, Apo CIII/Apo CII, and Apo E; percent change in HPLC findings for CM-C, VLDL-C, cholesterol content in 4 subclasses of LDL (large, medium, small, and very small LDLs), and cholesterol content for 5 subclasses of HDL (very large, large, medium, small, and very small HDLs); and changes in fibrinogen and FGF21. The primary safety endpoints were the incidence of adverse events and adverse drug reactions. Secondary safety endpoints were percentage of values above the upper limit of normal range for AST, ALT, sCr and CK, and change in sCr eGFR, CK, AST, ALT, gamma-glutamyl transferase (γ-GT), alkaline phosphatase (ALP), and total bilirubin.
Patients with renal dysfunction were defined as those with baseline eGFR<60 mL/min/1.73 m^2. Analysis was stratified by the presence or absence of renal dysfunction in the concomitant statin group, and efficacy and safety of pemafibrate were evaluated. In efficacy and safety evaluations excluding AEs, ADRs, and cutoff values for AST, ALT, sCr, and CK, findings were combined for pemafibrate subgroups receiving doses of 0.1 mg/day, 0.2 mg/day, and 0.4 mg/day.
For each lipid parameter, gel filtration HPLC was performed at Skylight Biotech, Inc. Other measurements were performed at LSI Medience Corporation. The FAS was used for analyzing efficacy parameters of effects on lipids, fibrinogen, and FGF21. The safety analysis set was used for safety parameters and included all patients who received at least one dose of the study drug. For lipid parameters, fibrinogen, and FGF21, LS means (95% confidence interval) were calculated at Week 12 (LOCF) using analysis of covariance (ANCOVA) with baseline values as the co-variable within each category. For safety parameters, LS means (95% confidence interval) were calculated at Week 12 using ANCOVA with baseline values as the co-variable within each category. SAS version 9.2 was used for analyses.

`CC[C@@H](Oc1cccc(CN(CCCOc2ccc(OC)cc2)c2nc3ccccc3o2)c1)C(=O)O` [Pemafibrate, (2R)-2-[3-({1,3-benzoxazol-2-yl[3-(4-methoxyphenoxy)propyl]amino}methyl)phenoxy]butanoic acid] was tested. Which “ADE Leading to withdrawal, number of patients” value (0.1 mg/day, n=45) did it give?
Its value is 1.

What about the “ADE Leading to withdrawal, percentage of patients” value (0.1 mg/day, n=45) of the same compound?
Its value is “(2.2) percentage”.

And the “ADE Serious, number of patients” value (0.1 mg/day, n=45)?
Its value is 0.

And the “ADE Total, number of patients” value (0.1 mg/day, n=45)?
The value was 3.

What about the “ADE Total, percentage of patients” value (0.1 mg/day, n=45) of the same compound?
The value was “(6.7) percentage”.

What about the “AE Leading to withdrawal, number of patients” value (0.1 mg/day, n=45) of the same compound?
Its value is 2.

And the “AE Leading to withdrawal, percentage of patients” value (0.1 mg/day, n=45)?
Its value is “(4.4) percentage”.

And the “AE Serious, number of patients” value (0.1 mg/day, n=45)?
Its value is 2.

And the “AE Serious, percentage of patients” value (0.1 mg/day, n=45)?
Its value is “(4.4) percentage”.

And the “AE Total, number of patients” value (0.1 mg/day, n=45)?
Its value is 29.

What about the “AE Total, percentage of patients” value (0.1 mg/day, n=45) of the same compound?
Its value is “(64.4) percentage”.

And the “ALT ≥ ULN × 3, number of patients” value (0.1 mg/day, n=45)?
Its value is 1.

And the “ALT ≥ ULN × 3, percentage of patients” value (0.1 mg/day, n=45)?
The value was “(2.2) percentage”.

What about the “AST ≥ ULN × 3, number of patients” value (0.1 mg/day, n=45) of the same compound?
The value was 0.

What about the “CK ≥ 2.5 and < ULN × 5, number of patients” value (0.1 mg/day, n=45) of the same compound?
The value was 2.

What about the “CK ≥ 2.5 and < ULN × 5, percentage of patients” value (0.1 mg/day, n=45) of the same compound?
Its value is “(4.4) percentage”.

And the “CK ≥ 5 and < ULN × 10, number of patients” value (0.1 mg/day, n=45)?
The value was 0.

And the “CK ≥ ULN × 10, number of patients” value (0.1 mg/day, n=45)?
Its value is 0.

And the “sCr ≥ ULN, number of patients” value (0.1 mg/day, n=45)?
The value was 8.

What about the “sCr ≥ ULN, percentage of patients” value (0.1 mg/day, n=45) of the same compound?
The value was “(17.8) percentage”.

What about the “ADE Leading to withdrawal, number of patients” value (0.2 mg/day, n=382) of the same compound?
The value was 11.

What about the “ADE Leading to withdrawal, percentage of patients” value (0.2 mg/day, n=382) of the same compound?
The value was “(2.9) percentage”.

And the “ADE Serious, number of patients” value (0.2 mg/day, n=382)?
The value was 2.

And the “ADE Serious, percentage of patients” value (0.2 mg/day, n=382)?
The value was “(0.5) percentage”.

And the “ADE Total, number of patients” value (0.2 mg/day, n=382)?
Its value is 36.

And the “ADE Total, percentage of patients” value (0.2 mg/day, n=382)?
Its value is “(9.4) percentage”.

And the “AE Leading to withdrawal, number of patients” value (0.2 mg/day, n=382)?
Its value is 12.

What about the “AE Leading to withdrawal, percentage of patients” value (0.2 mg/day, n=382) of the same compound?
Its value is “(3.1) percentage”.

And the “AE Serious, number of patients” value (0.2 mg/day, n=382)?
Its value is 6.

And the “AE Serious, percentage of patients” value (0.2 mg/day, n=382)?
The value was “(1.6) percentage”.

What about the “AE Total, number of patients” value (0.2 mg/day, n=382) of the same compound?
Its value is 164.

And the “AE Total, percentage of patients” value (0.2 mg/day, n=382)?
The value was “(42.9) percentage”.

And the “ALT ≥ ULN × 3, number of patients” value (0.2 mg/day, n=382)?
Its value is 0.

What about the “AST ≥ ULN × 3, number of patients” value (0.2 mg/day, n=382) of the same compound?
Its value is 1.

And the “AST ≥ ULN × 3, percentage of patients” value (0.2 mg/day, n=382)?
Its value is “(0.3) percentage”.

What about the “CK ≥ 2.5 and < ULN × 5, number of patients” value (0.2 mg/day, n=382) of the same compound?
The value was 7.

What about the “CK ≥ 2.5 and < ULN × 5, percentage of patients” value (0.2 mg/day, n=382) of the same compound?
Its value is “(1.6) percentage”.

What about the “CK ≥ 5 and < ULN × 10, number of patients” value (0.2 mg/day, n=382) of the same compound?
The value was 3.

And the “CK ≥ 5 and < ULN × 10, percentage of patients” value (0.2 mg/day, n=382)?
The value was “(0.6) percentage”.

And the “CK ≥ ULN × 10, number of patients” value (0.2 mg/day, n=382)?
Its value is 1.

And the “CK ≥ ULN × 10, percentage of patients” value (0.2 mg/day, n=382)?
The value was “(0.3) percentage”.

What about the “sCr ≥ ULN, number of patients” value (0.2 mg/day, n=382) of the same compound?
Its value is 61.

What about the “sCr ≥ ULN, percentage of patients” value (0.2 mg/day, n=382) of the same compound?
The value was “(16.0) percentage”.

And the “ADE Leading to withdrawal, number of patients” value (0.4 mg/day, n=72)?
Its value is 0.

And the “ADE Serious, number of patients” value (0.4 mg/day, n=72)?
Its value is 0.

What about the “ADE Total, number of patients” value (0.4 mg/day, n=72) of the same compound?
The value was 2.

And the “ADE Total, percentage of patients” value (0.4 mg/day, n=72)?
Its value is “(2.8) percentage”.

And the “AE Leading to withdrawal, number of patients” value (0.4 mg/day, n=72)?
Its value is 0.

What about the “AE Serious, number of patients” value (0.4 mg/day, n=72) of the same compound?
Its value is 0.

What about the “AE Total, number of patients” value (0.4 mg/day, n=72) of the same compound?
Its value is 34.

What about the “AE Total, percentage of patients” value (0.4 mg/day, n=72) of the same compound?
Its value is “(47.2) percentage”.

What about the “ALT ≥ ULN × 3, number of patients” value (0.4 mg/day, n=72) of the same compound?
Its value is 1.

And the “ALT ≥ ULN × 3, percentage of patients” value (0.4 mg/day, n=72)?
Its value is “(1.4) percentage”.

And the “AST ≥ ULN × 3, number of patients” value (0.4 mg/day, n=72)?
Its value is 1.

And the “AST ≥ ULN × 3, percentage of patients” value (0.4 mg/day, n=72)?
Its value is “(1.4) percentage”.

What about the “CK ≥ 2.5 and < ULN × 5, number of patients” value (0.4 mg/day, n=72) of the same compound?
Its value is 2.

And the “CK ≥ 2.5 and < ULN × 5, percentage of patients” value (0.4 mg/day, n=72)?
Its value is “(2.8) percentage”.

What about the “CK ≥ 5 and < ULN × 10, number of patients” value (0.4 mg/day, n=72) of the same compound?
The value was 0.

And the “CK ≥ ULN × 10, number of patients” value (0.4 mg/day, n=72)?
The value was 0.

And the “sCr ≥ ULN, number of patients” value (0.4 mg/day, n=72)?
Its value is 11.

And the “sCr ≥ ULN, percentage of patients” value (0.4 mg/day, n=72)?
The value was “(15.3) percentage”.

Reference: US11446282B2, “Methods of treating mixed dyslipidemia and hypertriglycertdemia” (Kowa Company, Ltd., priority 2017, dated 2022)
